{"source": "patent US11813264B2", "about": "“PAR1 modulation to alter myelination” (Mayo Foundation for Medical Education and Research, priority 2014, dated 2023)", "key": {"[1]": {"tested_on": "rat primary oligodendrocytes", "settings": "30 or 300 nM, 24 hours; cited from earlier work"}, "[2]": {"tested_on": "primary oligodendrocytes", "test": "Klk6-induced process retraction in primary oligodendrocytes (O4+ processes per cell)", "type": "cell-based, mouse", "procedure": "(§1) Oligodendrocyte Cultures: Purified cortical oligodendrocyte progenitor cells (OPCs) and differentiated oligodendrocytes were isolated from mixed glial cultures derived from postnatal day 1 mice (McCarthy and de Vellis, J Cell Blot 85:890-902, 1980). Glial cultures were grown in media containing DMEM, 2 mM Glutamax, 1 mM sodium pyruvate, 20 mM HEPES, and 10% heat-inactivated fetal calf serum (Atlanta Biologicals, Lawrenceville, GA). OPCs were isolated from 10 days-in-vitro (DIV) mixed glial cultures by overnight shaking and purified by differential adhesion. OPCs were seeded in defined Neurobasal A media containing 1% N2, 50 U/mL penicillin/streptomycin, 2 mM Glutamax, 1 mM sodium pyruvate, 0.45% glucose, and 50 μM β-mercaptoethanol (Sigma Aldrich, USA). OPCs were seeded at 3×10^4/cm^2 onto tissue culture plastic or 12 mm glass cover slips coated with poly-L-lysine (PLL, 10 μg/mL). After 24 h, cultures were 92-98% immunoreactive (IR) for sulfatide (O4) and by 72 hours at least 80% were also MBP-IR.\n(§2) PAR agonist-induced changes in oligodendrocyte morphology: To determine the effects of recombinant Klk6, Klk1, thrombin, or PAR1-AP on oligodendroglia, 3 DIV PAR1^+/+, PAR1^−/−, and PAR2^−/− oligodendrocytes, PAR1^+/+ OPCs immediately post purification, or Oli-neu cells were grown on cover slips in the presence of agonists for 24 h. For ATP toxicity assays, oligodendrocytes were incubated with ATP (50 μM, Sigma Aldrich) in the presence of Klk6 or Klk1. Following each treatment, oligodendrocyte and OPC cultures were immunolabeled for O4 to visualize the cell body and processes. Oli-neu processes were visualized by staining the actin cytoskeleton with Cy3-conjugated Phalloidin.\n(§3) To assess the effects of Klk6 and other PAR1 agonists on oligodendrocyte morphology and process stability, 20× digital micrographs were overlaid with a 780 μm^2 grid and ImageJ software 1.45r (National Institutes of Health) used to record cell number and the number of processes crossing horizontal grid lines (Scarisbrick et al., Brain 125:1283-1296, 2002). Data are expressed as the mean number of O4^+ or Phalloidin^+ processes per DAPI^+ cell (±SEM).\n(§4) Changes in OPC or oligodendrocyte morphology were quantified from five microscopic fields per cover slip with the mean and SEM calculated across three cover slips per experiment. Each experiment was repeated at least twice using independent cultures. Analysis of oligodendrocyte morphology was performed without knowledge of treatment groups."}, "[3]": {"tested_on": "primary oligodendrocyte cultures (3 DIV)", "test": "Oligodendrocyte morphological differentiation scoring (simple, incomplete, complete, membrane), process and cell number", "type": "cell-based, mouse", "settings": "24 hours", "procedure": "as §1, §2, §3\nThe extent of oligodendrocyte morphological differentiation was determined by scoring O4^+/DAPI^+ oligodendrocyte morphology as simple (only primary processes, no secondary branching), incomplete (one or more primary process without secondary branching), complete (all primary processes with secondary branching), or membrane (complete secondary branching with membrane sheets) (Huang et al., Nat Neurosci 14:45-53, 2011). The mean number of cells in each morphology class was determined across treatments and expressed as percent of total O4^+/DAPI^+ cells.\nas §4"}}}
{"substance": "Klk6: Recombinant murine kallikrein-related peptidase 6 expressed using a baculovirus system", "values": [{"measurement": "process retraction and oligodendrocyte degeneration", "setting": "[1]", "value": "significant process retraction without oligodendrocyte degeneration"}, {"measurement": "oligodendrocyte process retraction compared with controls", "setting": "[2]; PAR1+/+ oligodendrocytes 3 DIV, 30 or 300 nM, 24 h", "value": "significant and statistically equivalent oligodendrocyte process retraction"}, {"measurement": "number of O4+ cells", "setting": "[2]; PAR1+/+, PAR1-/- or PAR2-/- cells", "value": "No significant differences"}, {"measurement": "oligodendrocyte process retraction", "setting": "[2]; PAR1-/- oligodendrocytes, 30 or 300 nM", "value": "did not exhibit statistically significant process retraction"}, {"measurement": "oligodendrocyte process retraction", "setting": "[2]; PAR2-/- oligodendrocytes, 30 or 300 nM", "value": "process retraction comparable to that seen in PAR1^+/+ cultures"}, {"measurement": "number of incomplete oligodendrocyte morphologies", "setting": "[3]; 150 nM", "value": "greater than four-fold increase"}, {"measurement": "number of simple oligodendrocyte morphologies", "setting": "[3]; 150 nM", "value": "two-fold increase"}, {"measurement": "oligodendrocytes with complete morphology", "setting": "[3]; 150 nM", "value": "nearly eleven-fold decrease"}, {"measurement": "oligodendroglia with membrane morphology", "setting": "[3]; 150 nM", "value": "elimination"}, {"measurement": "oligodendrocyte number", "setting": "[3]; Klk6 150 nM, Klk1 300 nM", "value": "no significant effect"}, {"measurement": "processes per cell", "setting": "[3]; Klk6 150 nM, Klk1 300 nM", "value": "two-fold fewer"}]}
